Test results from patent US20080234363A1, “Antitumoral Compounds” (PHARMA MAR, S.A., priority 2005, published 2008).

Assays:
[1] = system: EGFR intracellular signaling (AP-1 activity); assay: EGFR signalling inhibition assay (AP-1 luciferase reporter, HeLa-AP1); format: cell-based; conditions: Homo sapiens; HeLa-AP1 cells, EGF 25 ng/mL stimulation, 18 hours
Description: In this assay, the signal transduction pathway triggered by the activated Epidermal Growth Factor (EGF) membrane receptor is indirectly quantified using an EGF-responsive, API-mediated, luciferase reporter system.
HeLa-AP1, a subclone of HeLa cell line (human cervix carcinoma, ATCC# CCL-2) stably transfected with a construct containing the luciferase reporter gene under the control of the proximal promoter of the human collagenase-3 gene (consensus AP-1 response element TGACTCA at positions −56/−50) were used. Cells were maintained in DMEM supplemented with 10% FCS and 100 units/mL penicillin and streptomycin at 37° C. and 5% CO2. HeLa-AP1 cells were pre-treated with the indicated compounds for 30 min before stimulation with EGF (25 ng/mL). After further 18 hours incubation, cell survival was estimated, for normalisation, by loading cells for 30 min with the vital fluorescent probe calcein-AM (0.5 μM). Fluorescence was quantified using a 1420 Victor^2 plate multilabel counter (Wallac). After that, cells were lysed and assayed for luciferase activity using the Bright-Glo system (Promega) and a 1450 Microbeta plate luminescence counter (Wallac-Trilux). Results were expressed as percentage of AP-1 activity inhibition as compared to control, untreated cells.

A549 = assay: SRB antitumor screening, A549; format: cell-based; conditions: for CC50 / GI50: Homo sapiens; for CC50: A549, 48 h, read-out: LC50; for GI50 / TGI: NSCL A549, SRB, 48 hours exposure
Description: (§1) The finality of these assays was to interrupt the growth of a “in vitro” tumor cell culture by means of a continued exhibition of the cells to the sample to be testing.
(§2) A colorimetric type of assay, using sulforhodamine B (SRB) reaction has been adapted for a quantitative measurement of cell growth and viability [following the technique described by Philip Skehan et al. (1990), New colorimetric cytotoxicity assay for anticancer drug screening, J. Natl. Cancer Inst., 82:1107-1112].
(§3) This form of assay employed 96 well cell culture microplates of 9 mm diameter (Faircloth et al. Methods in cell science, (1988), 11(4), 201-205; Mosmann, Journal of. Immunological Methods (1983), 65(1-2), 55-63. Most of the cell lines were obtained from American Type Culture Collection (ATCC) derived from different human cancer types.
(§4) Cells were maintained in RPMI 1640 10% FBS, supplemented with 0.1 g/L penicillin and 0.1 g/L streptomycin sulphate and then incubated at 37° C., 5% CO2 and 98% humidity. For the experiments, cells were harvested from subconfluent cultures using trypsin and resuspended in fresh medium before plating.
(§5) Cells were seeded in 96 well microtiter plates, at 5×10^3 cells per well in aliquots of 195 μL medium, and they were allowed to attach to the plate surface by growing in drug free medium for 18 hours. Afterward, samples were added in aliquots of 5 μL in a ranging from 10 to 10^−8 μg/mL, dissolved in DMSO:EtOH:PBS (0.5:0.5:99). After 48 hours exposure, the antitumor effect were measured by the SRB methodology: cells were fixed by adding 50 μL of cold 50% (wt/vol) trichloroacetic acid (TCA) and incubated for 60 minutes at 4° C. Plates were washed with deionised water and dried. One hundred μL of SRB solution (0.4% wt/vol in 1% acetic acid) was added to each microtiter well and incubated for 10 minutes at room temperature. Unbound SRB was removed by washing with 1% acetic acid. Plates were air dried and bound stain was solubilized with Tris buffer. Optical densities were read on an automated spectrophotometric plate reader at a single wavelength of 490 nm.
(§6) The values for mean +/−SD of data from triplicate wells were calculated. Some parameters for cellular responses could be calculated: GI=growth inhibition, TGI=total growth inhibition (cytostatic effect) and LC=cell killing (cytotoxic effect).

MDA-MB-231 = assay: SRB antitumor screening, MDA-MB-231; format: cell-based, human; conditions: Breast MDA-MB-231, SRB, 48 hours exposure; for GI50: Homo sapiens
Description: as §1, §2, §3, §4
as §5, with “One hundred μL of SRB solution (0.4% wt/vol in 1% acetic acid) was added to each microtiter well and incubated for 10 minutes at room temperature. Unbound SRB was removed by washing with 1% acetic acid. Plates were air dried and bound stain was solubilized with Tris buffer.” left out
as §6

HT29 = assay: SRB antitumor screening, HT29; format: cell-based, human; conditions: Colon HT29, SRB, 48 hours exposure; for GI50: Homo sapiens, HT-29
Description: as §1, §2, §3, §4
as §5, with “One hundred μL of SRB solution (0.4% wt/vol in 1% acetic acid) was added to each microtiter well and incubated for 10 minutes at room temperature. Unbound SRB was removed by washing with 1% acetic acid. Plates were air dried and bound stain was solubilized with Tris buffer.” left out
as §6

[2] = system: photosynthetic electron transport; conditions: cited from earlier work
[3] = Single-administration dose range finding in mice (MTD); conditions: mouse, in vivo; CD-1 male mice, single intravenous administration, vehicle micelles
Description: The finality of this assay was to determine the maximum tolerated dose (MTD) in mice by a single administration of the drug.
CD-1 male mice were used for this study, weighing ca. 25 g were randomly allocated to several dosing groups. Animals received a single intravenous administration of Stigmatellin A (CAS Number: 91682-96-1, purchased from Fluka (Ref: 85865)) dosed into the lateral vein of the tail. […] Mortality was recorded daily. The Maximum Tolerated Dose (MTD) was determined based on the mortality found in each dose level, calculated when mortality vs. dose is 0%.

CD-1 male mice = assay: Multiple-administration dose range finding in mice (MTMD); format: in vivo
Description: The finality of this assay was to determine the maximum tolerated multiple dose (MTMD) in mice by a multiple administration of the drug.
CD-1 male mice were used for this study, weighing ca. 25 g were randomly allocated to several dosing groups. Animals received a multiple doses by either intravenous or extravascular (intraperitoneal) route. […] Mortality was daily recorded. The MTMD was determined based on the mortality found in each dose level, calculated when mortality vs. dose is 0%.

cytochrome b-cl segment = target: T1, cytochrome b-cl segment (Bos taurus, UniProt P00157+P13272); conditions: bovine heart submitochondrial particles; cited from earlier work
T1 construct: bovine heart submitochondrial particles at the site of the cytochrome b-cl segment; host or cells: bovine heart submitochondrial particles

SMILES | IC50 [1] [µM] | CC50 (A549) [µM] | GI50 (A549) [µM] | TGI (A549) [Molar] | TGI (MDA-MB-231) [Molar] | GI50 (MDA-MB-231) [µM] | TGI (HT29) [Molar] | GI50 (HT29) [µM] | inhibition of photosynthetic electron transport [2] | MTD at 4 days [3] [mg/kg] | MTMD (CD-1 male mice; ip/5DD, liposomes at 0.035 mg/mL) [mg/kg] | MTMD (CD-1 male mice; iv/5DD, liposomes at 0.096 mg/mL) [mg/kg] | inhibitory potency (cytochrome b-cl segment)
CCCC(C)/C=C/C=C/[C@H](OC)[C@@H](C)[C@@H](OC)[C@@H](C)CCc1oc2c(O)c(OC)cc(OC)c2c(=O)c1C (stereo partly shown) [Compound I] | 0.226 | 4.15 | 0.0923 | 5.28E−7 | 3.20E−6 | 0.153 | 5.84E−6 | 0.867 |  |  |  |  | 
C/C=C(C)/C=C/C=C/C(OC)C(C)C(OC)C(C)CCc1oc2c(O)c(OC)cc(OC)c2c(=O)c1C (stereo not shown) [Stigmatellin A] | 9.72 | 7.58 | 0.602 | 1.94E−6 |  | 0.389 |  | 0.991 | powerful inhibitor | 0.44 | 0.28 | 0.14 | identical with that of antimycin and myxothiazol
